Assay results taken from patent publication US9486462B2, “Formulations of aminoglycosides and fosfomycin in a combination having improved chemical properties” (CARDEAS PHARMA CORPORATION, priority 2013, dated 2016).

How the values were obtained:
[1] = in vivo
Protocol: (§1) In clinical use, concentration of the aminoglycoside and fosfomycin are delivered to yield a concentration in the lungs that is MIC90 for the target organism. For amikacin, about […] of amikacin chloride and about […] of fosfomycin disodium are delivered to the lung (50 mg amikacin chloride and 20 mg fosfomycin in solution) using a nebulizer with an expected 15% delivery efficiency.

[2] = test system: highly resistant Gram-negative organisms; assay: Predicted lung concentration relative to MIC90, Gram-negative organisms; type: in vivo; conditions: most highly resistant Gram-negative organisms
Protocol: as §1

[3] = cited from earlier work
[4] = commercially available; cited from earlier work
[5] = pH of amikacin starting materials; type: physicochemical; conditions: amikacin base, before neutralization
Staphylococcus aureus [6] = assay: Predicted lung concentration relative to MIC90, Staphylococcus aureus; type: in vivo
Protocol: as §1

pseudomonas = conditions: approximately 20 mg delivered to the lung, co-infected patients; cited from earlier work
Staphylococcus aureus [7] = conditions: cited from earlier work

Compound: amikacin chloride
- predicted concentration delivered to the lungs [1]: about 13,500 ug/mL
- predicted lung concentration, times the MIC90 [2]: greater than 25 times

Compound: gentamycin
- pKa [3]: 8.2

Compound: NCC[C@H](O)C(=O)N[C@@H]1C[C@H](N)[C@@H](O[C@H]2O[C@H](CN)[C@@H](O)[C@H](O)[C@H]2O)[C@H](O)[C@H]1O[C@H]1O[C@H](CO)[C@@H](O)[C@H](N)[C@H]1O.O=S(=O)(O)O.O=S(=O)(O)O [amikacin sulfate]
- starting pH [4]: 3.5-5.5

Compound: NCC[C@H](O)C(=O)N[C@@H]1C[C@H](N)[C@@H](O[C@H]2O[C@H](CN)CC[C@H]2N)[C@H](O)[C@H]1O[C@H]1O[C@H](CO)[C@@H](O)[C@H](N)[C@H]1O [arbekacin]
- pKa [3]: 10.2

Compound: NCC[C@H](O)C(=O)N[C@@H]1C[C@H](N)[C@@H](O[C@H]2O[C@H](CN)[C@@H](O)[C@H](O)[C@H]2O)[C@H](O)[C@H]1O[C@H]1O[C@H](CO)[C@@H](O)[C@H](N)[C@H]1O [amikacin]
- pH [5]: approximately 11

Compound: C[C@@H]1O[C@@H]1P(=O)(O)O [fosfomycin]
- predicted concentration delivered to the lungs [1]: about 5400 ug/mL
- predicted peak concentration, times the MIC90 (Staphylococcus aureus [6]): greater than 25 times
- bacterial density (pseudomonas): Decreased bacterial density
- bacterial density (Staphylococcus aureus [7]; approximately 20 mg delivered to the lung, co-infected patients): Decreased bacterial density
- killing of staphylococcus (Staphylococcus aureus [7]; estimated 40 mg delivered dose versus estimated 20 mg dose): more efficacious
